Reference: patent US12194050B2, “Thiadiazine derivatives” (RICHTER GEDEON NYRT., priority 2018, dated 2025)

Key:
[1] = system: Male NMRI mice; experiment: Place recognition test (Y-maze), reversal of scopolamine-induced amnesia; assay type: in vivo; settings: scopolamine 1 mg/kg i.p.
Procedure: In Vivo Pharmacology (Place Recognition Test)
Animals: Male NMRI mice (Toxicoop, Hungary)
Substances: Scopolamine was dissolved in saline and administered at 1 mg/kg dose i.p. Test compounds were administered 30 minutes before the acquisition trial (T1) and scopolamine after the acquisition trial at a volume of 0.1 ml/10 g.
Procedure: The task was carried out in a transparent plexiglass Y-maze (each arm has a length of 40 cm, an inner width of 11 cm and a height of 30 cm). Numerous visual cues were placed around the arms and were kept constant during the experiment. The test consisted of two trials (T1 and T2) separated by an intertrial interval of 30 minutes. Mice were placed in the starting arm of the maze at the beginning of each trial. In T1, one of the symmetric arms of the maze was closed (it will be novel in T2) and the animals were allowed to explore the maze for 5 minutes (acquisition phase). In T2, mice had free access to all three arms for 2 minutes (retrieval phase). The time spent with exploration in the novel and familiar arms during T2 was measured. Differences between the exploration times spent in the familiar vs. novel arms of the maze for each group were evaluated by MANOVA, followed by Duncan post hoc test.
Significant differences (^+p<0.05; ^++p<0.01; ^+++p<0.001) were observed between the exploration times spent in the novel vs. familiar arms of the maze.

[2] = biological target: human α7 nAchR (Homo sapiens (Human), UniProt P36544); experiment: Human α7 nicotinic acetylcholine receptor [Ca2+]i assay (PAM, Ca2+ fluorometry); assay type: cell-based; settings: Flp-In 293 cells expressing human α7 nAchR and human RIC-3; in presence of saturating agonist (mostly PNU-282987, 1 μM)
Procedure: Biological Activity Human α7 Nicotinic Acetylcholine Receptor [Ca^2+]i Assay
Cells: Flp-In 293 cells stably expressing human α7 nAchR and human RIC-3 (α7 cells, generated in house.)
Materials: 96-well plates coated with PDL (Falcon), culture medium, assay buffer, DMSO, FLIPR Calcium 5 kit (Molecular Devices), probenecid, agonist and PAM test compounds.
Brief Description of the Method (Ca^2+ Fluorometry)
α7 cells stably expressing human α7 nAchR were cultured in the medium detailed above, and were split twice a week. For the fluorometric measurements of cytosolic Ca^2+ ion concentration ([Ca^2+]i) cells were seeded in 96-well microplates at a density of 60000 cells/well and maintained overnight in a tissue culture incubator at 37° C. under an atmosphere of 95% air/5% CO2. The plating medium was identical with the culture medium. 50 μl of the growth medium was aspirated with a cell washer (BioTek Elx405UCVWS). Then 50 μl/well Calcium 5 kit diluted 2-fold in assay buffer was added manually using an 8-channel pipette. After an incubation period (20 minutes, 37° C.) 50 μl/well assay buffer containing vehicle (DMSO, 4% added) or reference α7 PAMs (4×of the final concentration) were added manually and the cells were incubated for an additional 10 minutes at 37° C. Baseline and agonist-evoked [Ca2+]i-changes were monitored with FlexStation II (Molecular Devices, Sunnyvale, Calif.), a plate reader fluorometer with integrated 8-channel fluid addition capability. Fluorescence measurements were carried out at 37° C. The dye was excited at 485 nm, emission was sampled at 525 nm at 1.4-s intervals. Baseline was recorded for 20 seconds followed by agonist stimulation. 50 μl 4× concentrated agonist solution was added to the cells using the pipettor of FlexStation II and fluorescence was monitored for an additional 40 seconds. Final DMSO concentration was 1% for all treatments. To achieve this, a series of DMSO stock solutions were prepared from all test compounds. These stocks were stored under 0° C. and were further diluted in assay buffer to obtain the desired final concentration immediately before the measurement. Agonist and PAM concentration-response studies were conducted in the presence of saturating concentrations of PAMs (mostly PNU-120596, 5 μM) and agonists (mostly PNU-282987, 1 μM), respectively. Results were expressed as ΔF/F values using SoftMax Pro software (Molecular Devices), where F was the resting fluorescence preceding agonist application and ΔF was the increase in fluorescence at a given time (ΔF=maximum fluorescence intensity values after stimulation minus average fluorescence intensity values before stimulation). In all experiments, all treatments were measured in multiple wells in parallel, and the mean ΔF/F values were used for analysis.

human α7 nAchR, sequence (P36544 23-502): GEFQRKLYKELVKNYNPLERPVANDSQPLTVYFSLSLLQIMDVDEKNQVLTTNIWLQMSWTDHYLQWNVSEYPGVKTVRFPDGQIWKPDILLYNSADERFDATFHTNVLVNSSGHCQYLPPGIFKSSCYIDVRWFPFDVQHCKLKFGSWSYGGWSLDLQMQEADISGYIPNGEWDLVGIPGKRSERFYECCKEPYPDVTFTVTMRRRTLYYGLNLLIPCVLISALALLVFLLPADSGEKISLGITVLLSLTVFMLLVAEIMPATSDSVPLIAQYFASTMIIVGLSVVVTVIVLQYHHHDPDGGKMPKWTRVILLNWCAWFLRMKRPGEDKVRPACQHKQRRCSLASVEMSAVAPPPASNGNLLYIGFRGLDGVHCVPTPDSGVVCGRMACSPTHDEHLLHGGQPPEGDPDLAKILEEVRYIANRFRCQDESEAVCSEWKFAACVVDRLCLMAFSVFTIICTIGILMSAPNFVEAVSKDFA

With `CCN1C(C(=O)Nc2cccc(OC)c2)=CC(c2ccc(OC)c(C(F)(F)F)c2)=NS1(=O)=O` [Example 37] as the compound, how does the “reversal of the scopolamine-induced amnesia; significance of exploration time novel vs. familiar arm” value ([1]; 1 mg/kg i.p.) read?
The value was “+++ (+++p < 0.001)”.

What about the “reversal of the scopolamine-induced amnesia; significance of exploration time novel vs. familiar arm” value ([1]; 3 mg/kg i.p.) of the same compound?
The value was “++ (++p < 0.01)”.

And the “reversal of the scopolamine-induced amnesia; significance of exploration time novel vs. familiar arm” value ([1]; 10 mg/kg i.p.)?
The value was “+++ (+++p < 0.001)”.

And the EC50 [2]?
Its EC50 is 45 nM.

How did the “reversal of the scopolamine-induced amnesia; significance of exploration time novel vs. familiar arm” value ([1]; 1 mg/kg i.p.) turn out when `CCN1C(C(=O)Nc2cccc(C)c2)=CC(c2ccc(OC)c(OC)c2)=NS1(=O)=O` [Example 29] was run?
The value was “+++ (+++p < 0.001)”.

And the “reversal of the scopolamine-induced amnesia; significance of exploration time novel vs. familiar arm” value ([1]; 3 mg/kg i.p.)?
Its value is “++ (++p < 0.01)”.

And the “reversal of the scopolamine-induced amnesia; significance of exploration time novel vs. familiar arm” value ([1]; 10 mg/kg i.p.)?
The value was “+++ (+++p < 0.001)”.

And the EC50 [2]?
Its EC50 is 340 nM.

Which “reversal of the scopolamine-induced amnesia; significance of exploration time novel vs. familiar arm” value ([1]; 1 mg/kg i.p.) does the source give for `COc1ccc(C2=NS(=O)(=O)N(C(C)C)C(C(=O)Nc3cccc(C(F)(F)F)n3)=C2)cc1OC` [Example 91] here?
The value was “+++ (+++p < 0.001)”.

What about the “reversal of the scopolamine-induced amnesia; significance of exploration time novel vs. familiar arm” value ([1]; 3 mg/kg i.p.) of the same compound?
The value was “+ (+p < 0.05)”.

What about the “reversal of the scopolamine-induced amnesia; significance of exploration time novel vs. familiar arm” value ([1]; 10 mg/kg i.p.) of the same compound?
Its value is “+++ (+++p < 0.001)”.

What about the EC50 [2] of the same compound?
Its EC50 is 35 nM.

`CCN1C(C(=O)Nc2cccc(C(F)(F)F)n2)=CC(c2ccc(OC)c(OC)c2)=NS1(=O)=O` [Example 33] was tested. Which “reversal of the scopolamine-induced amnesia; significance of exploration time novel vs. familiar arm” value ([1]; 1 mg/kg i.p.) did it give?
Its value is “+++ (+++p < 0.001)”.

What about the “reversal of the scopolamine-induced amnesia; significance of exploration time novel vs. familiar arm” value ([1]; 3 mg/kg i.p.) of the same compound?
Its value is “++ (++p < 0.01)”.

What about the “reversal of the scopolamine-induced amnesia; significance of exploration time novel vs. familiar arm” value ([1]; 10 mg/kg i.p.) of the same compound?
The value was “++ (++p < 0.01)”.

What about the EC50 [2] of the same compound?
The EC50 was 50 nM.

How did the “reversal of the scopolamine-induced amnesia; significance of exploration time novel vs. familiar arm” value ([1]; 1 mg/kg i.p.) turn out when `CCCN1C(C(=O)Nc2cccc(C(F)(F)F)c2)=CC(c2ccc(OC)c(OC)c2)=NS1(=O)=O` [Example 94] was run?
The value was “+++ (+++p < 0.001)”.

What about the “reversal of the scopolamine-induced amnesia; significance of exploration time novel vs. familiar arm” value ([1]; 3 mg/kg i.p.) of the same compound?
The value was “+++ (+++p < 0.001)”.

And the “reversal of the scopolamine-induced amnesia; significance of exploration time novel vs. familiar arm” value ([1]; 10 mg/kg i.p.)?
The value was “+++ (+++p < 0.001)”.

And the EC50 [2]?
The EC50 was 340 nM.

`COc1ccc(C2=NS(=O)(=O)N(C)C(C(=O)Nc3cccc(C)c3)=C2)cc1OC` [Example 1, 5-(3,4-dimethoxyphenyl)-2-methyl-N-(3-methylphenyl)-1,1-dioxo-2H-1λ^6,2,6-thiadiazine-3-carboxamide] was tested. Which “reversal of the scopolamine-induced amnesia; significance of exploration time novel vs. familiar arm” value ([1]; 1 mg/kg i.p.) did it give?
Its value is “++ (++p < 0.01)”.

What about the “reversal of the scopolamine-induced amnesia; significance of exploration time novel vs. familiar arm” value ([1]; 3 mg/kg i.p.) of the same compound?
Its value is “+++ (+++p < 0.001)”.

What about the “reversal of the scopolamine-induced amnesia; significance of exploration time novel vs. familiar arm” value ([1]; 10 mg/kg i.p.) of the same compound?
The value was “+++ (+++p < 0.001)”.

And the EC50 [2]?
The EC50 was 430 nM.

Which “reversal of the scopolamine-induced amnesia; significance of exploration time novel vs. familiar arm” value ([1]; 1 mg/kg i.p.) does the source give for `Cc1cccc(NC(=O)C2=CC(c3ccc4c(c3)c(C)nn4C)=NS(=O)(=O)N2C)c1` [Example 21] here?
The value was “++ (++p < 0.01)”.

And the “reversal of the scopolamine-induced amnesia; significance of exploration time novel vs. familiar arm” value ([1]; 3 mg/kg i.p.)?
Its value is “+++ (+++p < 0.001)”.

What about the “reversal of the scopolamine-induced amnesia; significance of exploration time novel vs. familiar arm” value ([1]; 10 mg/kg i.p.) of the same compound?
The value was “++ (++p < 0.01)”.

What about the EC50 [2] of the same compound?
Its EC50 is 230 nM.

With `COc1ccc(C2=NS(=O)(=O)N(C)C(C(=O)Nc3ccc4c(c3)CCN(C)C4=O)=C2)cc1OC` [Example 2] as the compound, how does the EC50 [2] read?
Its EC50 is 1400 nM.

`CCN1C(C(=O)Nc2ccc(OC)cc2)=CC(c2ccc(OC)c(C)c2)=NS1(=O)=O` [Example 43] was tested. Which EC50 [2] did it give?
Its EC50 is 110 nM.

With `CCN1C(C(=O)Nc2cccc(C(F)(F)F)c2)=CC(c2ccc(C)c(OC)c2)=NS1(=O)=O` [Example 49] as the compound, how does the EC50 [2] read?
Its EC50 is 490 nM.

With `CCN1C(C(=O)Nc2ccc(C)cc2)=CC(c2ccc(OC)c(C)c2)=NS1(=O)=O` [Example 46] as the compound, how does the EC50 [2] read?
The EC50 was 170 nM.

`CCCCN1C(C(=O)Nc2cccc(C(F)(F)F)c2)=CC(c2ccc(OC)c(OC)c2)=NS1(=O)=O` [Example 111] was tested. Which EC50 [2] did it give?
The EC50 was 200 nM.

For `CC(C)N1C(C(=O)Nc2ccnc(C(F)(F)F)n2)=CC([C@H]2CC[C@H](C(F)(F)F)CC2)=NS1(=O)=O` [Example 136], which EC50 [2] is on record?
The EC50 was 150 nM.

With `COc1ccc(C2=NS(=O)(=O)N(C)C(C(=O)Nc3cc(Cl)ccc3OC)=C2)cc1Cl` [Example 25] as the compound, how does the EC50 [2] read?
Its EC50 is 1400 nM.

For `CCN1C(C(=O)Nc2cccc(C(C)(F)F)n2)=CC([C@H]2CC[C@H](C(F)(F)F)CC2)=NS1(=O)=O` [Example 78], which EC50 [2] is on record?
Its EC50 is 790 nM.

How did the EC50 [2] turn out when `COc1ccc(C2=NS(=O)(=O)N(C(C)C)C(C(=O)Nc3cccc(Nc4cccc(F)n4)n3)=C2)cc1OC` [Example 90] was run?
Its EC50 is 1200 nM.

For `CCN1C(C(=O)Nc2cccc(C)c2)=CC(c2ccc(OC)c(C)c2)=NS1(=O)=O` [Example 45], which EC50 [2] is on record?
The EC50 was 210 nM.
